# Patent US7618960B2, “Morpholine type cinnamide compound” (Eisai R&D Management Co., Ltd., priority 2005, dated 2009)
# System: Aβ42 production
# Assay: Quantification of Aβ peptide in culture of neurons from rat fetus brain (Aβ ELISA)
# Assay type: cell-based
# Conditions: Neuron, 72 h; rat primary neuronal culture (cerebral cortex, embryonic day 18 Wistar rats); medium collected three days after addition of compound; Aβx-42 ELISA; read-out: Activity for reducing Aβ42 production IC50
# Experimental: Quantification of Aβ Peptide in Culture of Neurons from Rat Fetus Brain
# (1) Rat Primary Neuronal Culture
# Primary neuronal cultures were prepared from the cerebral cortex of embryonic day 18 Wistar rats (Charles River Japan, Yokohama, Japan). Specifically, the embryos were aseptically removed from pregnant rats under ether anesthesia. The brain was isolated from the embryo and immersed in an ice-cold L-15 medium (Invitrogen Corp. Cat #11415-064, Carlsbad, Calif., USA, or SIGMA L1518, for example). The cerebral cortex was collected from the isolated brain under a stereoscopic microscope. The cerebral cortex fragments collected were enzymatically treated in an enzyme solution containing 0.25% trypsin (Invitrogen Corp. Cat #15050-065, Carlsbad, Calif., USA) and 0.01% DNase (Sigma D5025, St. Louis, Mo., USA) at 37° C. for 30 minutes to disperse the cells. Here, the enzymatic reaction was stopped by adding inactivated horse serum to the solution. The enzymatically treated solution was centrifuged at 1,500 rpm for five minutes to remove the supernatant. 5 to 10 ml of a medium was added to the resulting cell mass. Neurobasal medium (Invitrogen Corp. Cat #21103-049, Carlsbad, Calif., USA) supplemented with 2% B27 supplement (Invitrogen Corp. Cat #17504-044, Carlsbad, Calif., USA), 25 μM 2-mercaptoethanol (2-ME, WAKO Cat #139-06861, Osaka, Japan), 0.5 mM L-glutamine (Invitrogen Corp. Cat #25030-081, Carlsbad, Calif., USA), and Antibiotics-Antimycotics (Invitrogen Corp. Cat #15240-062, Carlsbad, Calif., USA) was used as the medium (Neurobasal/B27/2-ME). However, the above Neurobasal medium not supplemented with 2-ME (Neurobasal/B27) was used for the assay. The cells were redispersed by mild pipetting of the cell mass to which the medium was added. The cell dispersion was filtered through a 40-μm nylon mesh (Cell Strainer, Cat #35-2340, Becton Dickinson Labware, Franklin Lakes, N.J., USA) to remove the remaining cell mass, and thus a neuronal cell suspension was obtained. The neuronal cell suspension was diluted with the medium and then plated in a volume of 100 μl/well at an initial cell density of 5×10^5 cells/cm^2 in a 96-well polystyrene culture plate pre-coated with poly-L or D-lysine (Falcon Cat #35-3075, Becton Dickinson Labware, Franklin Lakes, N.J., USA coated with poly-L-lysine using the method shown below, or BIOCOAT™ cell environments Poly-D-lysine cell ware 96-well plate, Cat #35-6461, Becton Dickinson Labware, Franklin Lakes, N.J., USA). Poly-L-lysine coating was carried out as follows. 100 μg/ml of a poly-L-lysine (SIGMA P2636, St. Louis, Mo., USA) solution was aseptically prepared with a 0.15 M borate buffer (pH 8.5). 100 μl/well of the solution was added to the 96-well polystyrene culture plate and incubated at room temperature for one or more hours or at 4° C. overnight or longer. The coated 96-well polystyrene culture plate was washed with sterile water four or more times, and then dried or rinsed with, for example, sterile PBS or medium, and used for cell plating. The plated cells were cultured in the culture plate at 37° C. in 5% […]-95% air for one day. Then, the total amount of the medium was replaced with a fresh Neurobasal™/B27/2-ME medium, and then the cells were cultured for further three days.
# The drug was added to the culture plate on Day 4 of culture as follows. The total amount of the medium was removed from the wells, and 180 μl/well of Neurobasal medium not containing 2-ME and containing 2% B-27 (Neurobasal/B27) was added thereto. A solution of the test compound in dimethyl sulfoxide (hereinafter abbreviated as DMSO) was diluted with Neurobasal/B27 so that the initial concentration was at 10-fold of the final concentration. 20 μl/well of the dilution was added to and sufficiently mixed with the medium. The final DMSO concentration was 1% or less. Only DMSO was added to the control group.
# The cells were cultured for three days after addition of the compound, and the total amount of the medium was collected. […]
row,Compound,IC50 [nM]
1,"COc1cc(/C=C2\O[C@@H](C)CN([C@@H](C)c3ccnc(Cl)c3)C2=O)ccc1-n1cnc(C)c1 [Example 51, (Z)-(S)-4-[(S)-1-(2-chloropyridin-4-yl)ethyl]-2-[1-[3-methoxy-4-(4-methyl-1H-imidazol-1-yl)phenyl]methylidene]-6-methylmorpholin-3-one]",67
2,"COc1cc(/C=C2\O[C@@H](C)CN([C@H](C)c3ccc(Cl)cn3)C2=O)ccc1-n1cnc(C)c1 [Example 21, (Z)-(S)-4-[(R)-1-(5-chloropyridin-2-yl)ethyl]-2-[1-[3-methoxy-4-(4-methyl-1H-imidazol-1-yl)phenyl]methylidene]-6-methylmorpholin-3-one]",195
3,"COc1cc(/C=C2\OC[C@H]3COC[C@@H](c4cc(F)c(F)c(F)c4)N3C2=O)ccc1-n1cnc(C)c1 [Example 108, (6R,9aR)-3-{1-[3-methoxy-4-(4-methyl-1H-imidazol-1-yl)phenyl]-(Z)-methylidene}-6-(3,4,5-trifluorophenyl)tetrahydro[1,4]oxazino[3,4-c][1,4]oxazin-4-one]",60
4,"Cc1cn(-c2ccc(/C=C3\OC(C)(C)CN([C@H](c4cc(F)c(F)c(F)c4)[C@@H](C)O)C3=O)cc2F)cn1 [Example 77, (Z)-2-[1-[3-fluoro-4-(4-methyl-1H-imidazol-1-yl)phenyl]methylidene]-4-[(1R,2R)-2-hydroxy-1-(3,4,5-trifluorophenyl)propyl]-6,6-dimethylmorpholin-3-one]",141
5,"COc1cc(/C=C2\O[C@@H](C)CN([C@@H](C)c3cc(F)c(F)c(F)c3)C2=O)ccc1-n1cnc(C)c1 [Example 37, (Z)-(6S)-2-[1-[3-methoxy-4-(4-methyl-1H-imidazol-1-yl)phenyl]methylidene]-6-methyl-4-[(S)-1-(3,4,5-trifluorophenyl)ethyl]morpholin-3-one]",20
6,"COc1cc(/C=C2\OC[C@H]3COC[C@@H](c4ccc(F)c(F)c4)N3C2=O)ccc1-n1cnc(C)c1 [Example 109, (6R,9aR)-6-(3,4-difluorophenyl)-3-{1-[3-methoxy-4-(4-methyl-1H-imidazol-1-yl)phenyl]-(Z)-methylidene}tetrahydro[1,4]oxazino[3,4-c][1,4]oxazin-4-one]",100
7,"COc1cc(/C=C2\O[C@@H](C)CN([C@H](C)c3ccnc(F)c3F)C2=O)ccc1-n1cnc(C)c1 [Example 25, (Z)-(S)-4-[(R)-1-(2,3-difluoropyridin-4-yl)ethyl]-2-[1-[3-methoxy-4-(4-methyl-1H-imidazol-1-yl)phenyl]methylidene]-6-methylmorpholin-3-one]",141
8,"COc1cc(/C=C2\O[C@@H](C)CN([C@@H](C)c3ccnc(Cl)c3F)C2=O)ccc1-n1cnc(C)c1 [Example 52, (Z)-(S)-4-[(S)-1-(2-chloro-3-fluoropyridin-4-yl)ethyl]-2-[1-[3-methoxy-4-(4-methyl-1H-imidazol-1-yl)phenyl]methylidene]-6-methylmorpholin-3-one]",86
9,"COc1cc(/C=C2\O[C@@H](C)CN(Cc3ccc(F)c(F)c3F)C2=O)ccc1-n1cnc(C)c1 [Example 5, (Z)-(S)-2-[1-[3-methoxy-4-(4-methyl-1H-imidazol-1-yl)phenyl]methylidene]-6-methyl-4-(2,3,4-trifluorobenzyl)morpholin-3-one]",125
10,"COc1cc(/C=C2\OC[C@H]3CCC[C@@H](c4ccc(Cl)cc4)N3C2=O)ccc1-n1cnc(C)c1 [Example 107, (6S,9aR)-6-(4-chlorophenyl)-3-{1-[3-methoxy-4-(4-methyl-1H-imidazol-1-yl)phenyl]-(Z)-methylidene}hexahydropyrido[2,1-c][1,4]oxazin-4-one]",78
11,"COc1cc(/C=C2\O[C@H](C)CN([C@H](c3cc(F)c(F)c(F)c3)[C@@H](C)O)C2=O)ccc1-n1cnc(C)c1 [Example 29, (Z)-(6R)-4-[(1R,2R)-2-hydroxy-1-(3,4,5-trifluorophenyl)propyl]-2-[1-[3-methoxy-4-(4-methyl-1H-imidazol-1-yl)phenyl]methylidene]-6-methylmorpholin-3-one]",23
12,"COc1cc(/C=C2\OC(C)(C)CN([C@@H](C)c3ccc(F)cc3)C2=O)ccc1-n1cnc(C)c1 [Example 7, (Z)-4-[(S)-1-(4-fluorophenyl)ethyl]-2-[1-[3-methoxy-4-(4-methyl-1H-imidazol-1-yl)phenyl]methylidene]-6,6-dimethylmorpholin-3-one]",76
13,"COc1cc(/C=C2\OC(C)(C)CN([C@H](c3ccc(F)cc3)[C@@H](C)O)C2=O)ccc1-n1cnc(C)c1 [Example 33, (Z)-4-[(1R,2R)-1-(4-fluorophenyl)-2-hydroxypropyl]-2-[1-[3-methoxy-4-(4-methyl-1H-imidazol-1-yl)phenyl]methylidene]-6,6-dimethylmorpholin-3-one]",63
14,"COc1cc(/C=C2\OC(C)(C)CN([C@@H](C)c3ccc(Cl)cn3)C2=O)ccc1-n1cnc(C)c1 [Example 60, (Z)-4-[(S)-1-(5-chloropyridin-2-yl)ethyl]-2-[1-[3-methoxy-4-(4-methyl-1H-imidazol-1-yl)phenyl]methylidene]-6,6-dimethylmorpholin-3-one]",96
15,"Cc1cn(-c2ccc(/C=C3\CCCN([C@H](c4cc(F)c(F)c(F)c4)[C@@H](C)O)C3=O)cc2F)cn1 [Example 85, (E)-3-{1-[3-fluoro-4-(4-methyl-1H-imidazol-1-yl)phenyl]methylidene}-1-[(1R,2R)-2-hydroxy-1-(3,4,5-trifluorophenyl)propyl]piperidin-2-one]",64
16,"COc1cc(/C=C2\O[C@@H](C)CN([C@@H](C)c3ccc(F)cc3)C2=O)ccc1-n1cnc(C)c1 [Example 9, (Z)-(S)-4-[(S)-1-(4-fluorophenyl)ethyl]-2-[1-[3-methoxy-4-(4-methyl-1H-imidazol-1-yl)phenyl]methylidene]-6-methylmorpholin-3-one]",60
17,"COc1cc(/C=C2\OC[C@H]3COC[C@@H](c4ccc(Cl)cc4)N3C2=O)ccc1-n1cnc(C)c1 [Example 111, (6R,9aR)-6-(4-chlorophenyl)-3-[1-[3-methoxy-4-(4-methyl-1H-imidazol-1-yl)phenyl]-(Z)-methylidene]tetrahydro[1,4]oxadino[3,4-c]oxadine-4-one]",129
18,COc1cc(/C=C2\OC[C@H]3CCC[C@@H](c4ccc(F)c(F)c4)N3C2=O)ccc1-n1cnc(C)c1 [Example 41],141
19,COc1cc(/C=C2\OC[C@H]3CCC[C@@H](c4cc(F)c(F)c(F)c4)N3C2=O)ccc1-n1cnc(C)c1 [Example 40],100
20,"COc1cc(/C=C2\OC(C)(C)CN([C@H]3CCOc4ccccc43)C2=O)ccc1-n1cnc(C)c1 [Example 12, (Z)-4-[(S)-chroman-4-yl]-2-[1-[3-methoxy-4-(4-methyl-1H-imidazol-1-yl)phenyl]methylidene]-6,6-dimethylmorpholin-3-one]",101
21,"COc1cc(/C=C2\O[C@@H](C)CN([C@@H](C)c3ccnc(F)c3F)C2=O)ccc1-n1cnc(C)c1 [Example 24, (Z)-(S)-4-[(S)-1-(2,3-difluoropyridin-4-yl)ethyl]-2-[1-[3-methoxy-4-(4-methyl-1H-imidazol-1-yl)phenyl]methylidene]-6-methylmorpholin-3-one]",36
